7 compounds from US7842690B2, “Cyclic hydroxylamine as psychoactive compounds” (BTG International Limited, priority 2003, dated 2010) can be followed below.

Holding throughout (format): in vivo
Assay [1] relates to Male rats of the Wistar strain. The assay can be described thus: Reserpine-induced changes in open field behaviour. As to conditions: reserpine 0.1 mg/kg SC daily for 14 days, acute 50 mg/kg IP 1 h prior to open field test, 5-min test, mean ± S.E.M. On the procedure: Rats treated with the compound of Example 1 were compared to either rats treated with the classical antidepressant, clomipramine or controls in the despair test (forced swim). The same groups were also tested for the reserpine-induced changes in open field behaviour.
Male rats of the Wistar strain (purchased from Charles River, Italy) weighing 220-240 g were used throughout all experiments. For at least 1 week prior to the experiment, the rats were housed four to a cage at a constant temperature of 21° C., and under a 12-h light/dark cycle (lights on between 08:00 and 20:00), with food and water available ad libitum.
An acute IP injection of clomipramine hydrochloride (50 mg/kg) or of the compound of Example 1 (0.2 and 0.5 mg/kg) or physiological saline was made in animals subjected to the reserpine-induced changes in the open field test (the injection was made together with the last reserpine administration, e.g. 1 h prior to the open field test).
All animals were gently manipulated by experienced facilities' keepers avoiding any environmental or physical stress. Rats subjected to drugs or physiological saline administration received an injection of a 1-mL standard volume of solution with a 23-gauge stainless steel needle of 31 mm length (for […]) or 21 mm length (for SC injections). The animals were randomly assigned to any treatment group and were used only once in the behavioural experiments.
Reserpine-induced changes in open field behaviour was studied according to the method described in Naunyn-Schmiedeberg's Arch. Pharmacol. 293: 109-114 (Vetulani et al., 1976). Reserpine (Sigma, USA) was dissolved in physiological saline and injected daily for 14 days at the dose of 0.1 mg/kg subcutaneously (SC). A period of 1 hour after the last injection of reserpine, animals were subjected to the open field test. This consisted of the measure of ambulation and rearing of the rat in a circular area divided into 17 equal sections and lighted by a centrally suspended lamp. The areas explored by the rat at least with anterior paws was recorded in 5 min test. The episodes of rearing towards the centre or the walls were also recorded in 5 min test.
All data were analysed using univariate random design analysis of variance (one-way ANOVA) and the post hoc Dunnett's test for multiple comparisons. A P-value of 0.05 or less was considered as indicative of a significant difference.

For assay [2], the system named is Male rats of the Wistar strain. The assay is described as follows: Despair test (forced swim). To be noted: 50 mg/kg IP, injections 24, 5 and 1 hour prior to test, 5-min test, mean ± S.E.M.
Assay [3] relates to mouse. The assay is described as follows: Black and white box test (Example 14). As to conditions: for Parameter 1: Latency L (initial movement from the white to the black area), Mean / Parameter 2: Time spent in White area (TW), Mean: 5-min recording; for Parameter 3: Transitions/5 min (T), Mean: transitions between the two compartments; for Parameter 4: Total Activity: Atot, Mean: white and black compartments. How it is done: The characteristic action of anxiolytic agents is to cause a redistribution of exploratory activity and time spent in the white section.
Each mouse was placed into the centre of the white, brightly lit area bacldng the opening between the B/W compartments. Animals behaviour was recorded by a remote video camera for 5 minutes. The recordings were subsequently evaluated on the TV by two operators unaware of drug treatment. The following behavioural parameters were recorded: • a) the latency of the initial movement from the white to the black area: L (sec); • b) the time spent in the white area TW (sec); the time spent in the black area is calculated by the difference: […] (sec); • c) the number of transitions between the two compartments T (No./5 min); • d) the total activity in the white and black compartments, Atot (No./5 min); • e) the total activity in the white area throughout the time spent in the white area: • AtotW/TW (No./sec); • f) the total activity in the black area throughout the time spent in the black area: AtotB/TB (No./sec); • g) the total number of exploratory rearings: Rtot (No./5 min); • h) the total number of line crossings: Ctot (No./5 min); • i) the number of exploratory rearings in the white section RW/TW (No./sec); • j) the number of line crossings in the white section CW/TW (No./sec).
Each group was composed by 8 animals.

In assay [4] the test system is BKW male albino mice. The assay is described as follows: Black and white box test (Example 10). As to conditions: 5-min period; for TB = time in white section: signed value.
Assay [5] deals with rats. The assay is described as follows: Elevated plus maze (X-maze) in rats. As to conditions: 5-min period. The text has this: The X-maze is constructed from Perspex® and comprises four arms (2 open, 2 closed), each 50 cm long by 9.5 wide and 40 high (closed, arms only) connected by a centre square (9.5×9.5). The open arm has a small lip (3 mm) to assist in the retention of the rat on the arm. The apparatus was housed in a room under subdued lighting conditions.
This model is based on the observation of spontaneous activity of rodents placed in an aversive environment produced by height and often spaces. […] Anxiolytic drugs increase the exploratory activity and the number of entries into the open arms. Rats were allowed at least 1 hour to acclimatise to the environment before testing commenced. Drug treatments were given IP in a pseudo-random, blind design, 40 minutes before behavioural testing, as appropriate. Rats were placed onto the centre square of the X-maze facing a specified open arm, and its behaviour was recorded by remote video over a 5 minute experimental period. The behavioural parameters were subsequently assessed by technicians reviewing the videotape and included: entries into each arm type, time spent on each arm type, rearing, stretch attend postures and head dips.

Assay [6] has as its system rats. The assay is described as follows: Escape deficit test (learned helplessness), antidepressant activity. As to conditions: rats treated IP for 15 days, unavoidable stress 16 h and escape test 24 h after last dosing; out of 30 trials; dose not given. On the procedure:
The “Escape deficit” test that derives from the classic paradigm of “learned helplessness” was used, as described by Meloni et al. in Pharmacol. Biochem. Behav. 46, 423-6 (1993) and Gambarana et al. in Behav. Pharmacol. 6, 66-73 (1995) and Neuropsychopharmacol. 21, 247-57 (1999). Exposure to an unavoidable stress induces […], which, after 24 hours, makes the rats unable to escape from a nociceptive stimulus. Rats exposed to unavoidable stress make 0-5 escapes out of 30 trials, while naïve rats realise 26-30 escapes. Classical anti-depressives prevent the occurrence of the escape deficit after chronic treatment (15 days).
Rats were treated intra-peritoneally (IP) for 15 days, and then submitted to the unavoidable stress (16 hours after the last dosing) prior to being subjected to the escape test (24 hours after the last dosing).

Setting [7] is: 1.25 mg/kg IP 40 min before test.
The mark [8] stands for this setting: IP 40 min before test, dose not given.
[9] abbreviates: 0.1 mg/kg IP 40 min before test.
[10] abbreviates: 0.125 mg/kg IP 40 min before test.

Counter-ions that a name gives are not always drawn.

In the case of `CN(C)CCCN1c2ccccc2CCc2ccc(Cl)cc21` [Clomipramine, clomipramine hydrochloride, reference compound], in assay [1], the “No. of Floor Units (ambulation)” value came to 84.6 ± 8.1 and the “Rearing Episodes” value is on record as 2.4 ± 0.2. The “Duration of Immobility” value in assay [2] is reported as 105.95 ± 9.13.
Turning to `CN1C(=O)CN=C(c2ccccc2)c2cc(Cl)ccc21` [Diazepam], in assay [3] (1.25 mg/kg), the “Parameter 5: Total Activity in white area: AtotW/TW, Mean” value (“Parameter 5: Total Activity” below) is “.723 No./sec”; the “Parameter 6: Total Activity in black area: AtotB/TB, Mean” value (“Parameter 6: Total Activity” for short) was “.723 No./sec”; the “Parameter 7: Rtot (total number of exploratory rearings), Mean” value (from here on “Parameter 7: Rtot”) turned out to be 68.750 No./5 min; the “Parameter 8: Ctot (total number of line crossings), Mean” value (“Parameter 8: Ctot” below) amounted to 144.375 No./5 min. Moreover, in assay [3] (1.25 mg/kg), the “Parameter 9: RW/TW (exploratory rearings in the white section), Mean” value (shortened to “Parameter 9: RW/TW”) is on record as “.124 No./sec”; the “Parameter 10: CW/TW (line crossings in the white section), Mean” value (from here on “Parameter 10: CW/TW”) was “.599 No./sec”; the “Parameter 1: Latency L (initial movement from the white to the black area), Mean” value (from here on “Parameter 1: Latency L”) was 13.750 s; the “Parameter 2: Time spent in White area (TW), Mean” value (“Parameter 2: Time spent” for short) was found to be 97.750 s. Moreover, in assay [3] (1.25 mg/kg), the “Parameter 3: Transitions/5 min (T), Mean” value was 13.375 No./5 min and the “Parameter 4: Total Activity: Atot, Mean” value is listed as 213.125 No./5 min. Further, in assay [4] (setting [7]), the “Atot = Total exploratory activity” value is listed as “+46.7”, the “CB/TB = crossings in the white compartment/time in white” value was “+0.08”, the “CN/TN = crossings in the black compartment/time in black” value is “+0.1” and the “Ctot = total number of crossings” value was “+30.7”. Besides, in assay [4] (setting [7]), the “FI = Initial potency” value was “+12.7”, the “RB/TB = rearings in the white compartment/time in white” value was “+0.06”, the “RN/TN = rearings in the black compartment/time in black” value is “+0.09” and the “Rtot = Total number of rearings” value is recorded as “+21.2”. Further, in assay [4] (setting [7]), the “TB = time in white section” value is “+33.2”. In addition, in assay [5] (setting [8]), the “% time spent in open arms” value turned out to be 25 ± 5% and the “No. of entries in open arms” value worked out at 4 ± 0.6.
Consider `ON1CCOCC1c1ccccc1` (centres unmarked) [Example P1, 3-phenylmorpholin-4-ol], for which, in assay [3] (0.1 mg/kg), the “Parameter 5: Total Activity” value is on record as “.608 No./sec”; the “Parameter 6: Total Activity” value is “.652 No./sec”; the “Parameter 7: Rtot” value is reported as 60.375 No./5 min; the “Parameter 8: Ctot” value was 137.000 No./5 min. In addition, in assay [3] (0.1 mg/kg), the “Parameter 9: RW/TW” value is listed as “.155 No./sec”; the “Parameter 10: CW/TW” value is on record as “.454 No./sec”; the “Parameter 1: Latency L” value worked out at 20.125 s; the “Parameter 2: Time spent” value was 116.750 s. Also, in assay [3] (0.1 mg/kg), the “Parameter 3: Transitions/5 min (T), Mean” value is 19.500 No./5 min and the “Parameter 4: Total Activity: Atot, Mean” value is listed as 197.375 No./5 min.
As for `ON1CCOCC1Cc1ccccc1` (centres unmarked) [Example P2, 3-benzylmorpholin-4-ol], in assay [3] (0.1 mg/kg), the “Parameter 5: Total Activity” value was “.519 No./sec”; the “Parameter 6: Total Activity” value is given as “.571 No./sec”; the “Parameter 7: Rtot” value was found to be 60.250 No./5 min; the “Parameter 8: Ctot” value is listed as 108.375 No./5 min. Also, in assay [3] (0.1 mg/kg), the “Parameter 9: RW/TW” value is “.099 No./sec”; the “Parameter 10: CW/TW” value is reported as “.420 No./sec”; the “Parameter 1: Latency L” value was found to be 19.625 s; the “Parameter 2: Time spent” value is 59.250 s. Moreover, in assay [3] (0.1 mg/kg), the “Parameter 3: Transitions/5 min (T), Mean” value was determined as 10.000 No./5 min and the “Parameter 4: Total Activity: Atot, Mean” value amounted to 168.625 No./5 min.
On to `ON1CCCCC1c1ccccc1` (centres unmarked) [Example P5, 2-phenylpiperidin-1-ol], for which, in assay [3] (0.1 mg/kg), the “Parameter 5: Total Activity” value is “.571 No./sec”; the “Parameter 6: Total Activity” value was “.708 No./sec”; the “Parameter 7: Rtot” value is listed as 69.500 No./5 min; the “Parameter 8: Ctot” value turned out to be 127.500 No./5 min. In addition, in assay [3] (0.1 mg/kg), the “Parameter 9: RW/TW” value is on record as “.123 No./sec”; the “Parameter 10: CW/TW” value is “.448 No./sec”; the “Parameter 1: Latency L” value came to 20.625 s; the “Parameter 2: Time spent” value amounted to 105.125 s. Further, in assay [3] (0.1 mg/kg), the “Parameter 3: Transitions/5 min (T), Mean” value stood at 14.750 No./5 min and the “Parameter 4: Total Activity: Atot, Mean” value worked out at 197.000 No./5 min.
With `ON1CCCCC1Cc1ccccc1` (centres unmarked) [Example P6, 2-benzylpiperidin-1-ol], in assay [3] (0.1 mg/kg), the “Parameter 5: Total Activity” value was “.705 No./sec”; the “Parameter 6: Total Activity” value was “.835 No./sec”; the “Parameter 7: Rtot” value was 75.625 No./5 min; the “Parameter 8: Ctot” value amounted to 153.750 No./5 min. Further, in assay [3] (0.1 mg/kg), the “Parameter 9: RW/TW” value is listed as “.190 No./sec”; the “Parameter 10: CW/TW” value is “.515 No./sec”; the “Parameter 1: Latency L” value was determined as 14.500 s; the “Parameter 2: Time spent” value amounted to 152.125 s. In assay [3] (0.1 mg/kg), the “Parameter 3: Transitions/5 min (T), Mean” value is listed as 24.250 No./5 min and the “Parameter 4: Total Activity: Atot, Mean” value was determined as 229.375 No./5 min.
The compound “cis-1,2,3,4,5,6a,7,8,9,10a,10b-dodeca-1,4-oxazino-[3′,4′:2,3]benzo[d]isoxazol-4-one [Comparative Compound A]” gave a No. of escapes in assay [6] of 3.5 ± 0.9. In addition, in assay [4] (setting [9]), the “Atot = Total exploratory activity” value is reported as “+53.7”, the “CB/TB = crossings in the white compartment/time in white” value was “+0.01”, the “CN/TN = crossings in the black compartment/time in black” value is “+0.08” and the “Ctot = total number of crossings” value is recorded as “+19.1”. Also, in assay [4] (setting [9]), the “FI = Initial potency” value is recorded as “+8.1”, the “PT = Total passages through the partition” value was “+4.1”, the “RB/TB = rearings in the white compartment/time in white” value was “+0.04” and the “RN/TN = rearings in the black compartment/time in black” value is reported as “+0.13”. In assay [4] (setting [9]), the “Rtot = Total number of rearings” value is listed as “+23.9” and the “TB = time in white section” value is “+52.1”. Further, in assay [5] (setting [10]), the “% time spent in open arms” value amounted to 21 ± 11% and the “No. of entries in open arms” value stood at 3 ± 1.1.
